Target: T1, Escherichia coli ferric enterobactin receptor, FepA (FepAE280C) (Escherichia coli, UniProt P05825, E302C)
T1 construct: expressed in transfected cells; host or cells: E. coli KDF541 (fepA, tonB+) carrying pFepAE280C; also KDF570 (fepA, tonB)
Format: cell-based
Procedure: Indicated at (A) are ESR analyses of MTSL-labeled bacteria expressing FepAE280C, KDF541(9) containing pITS449 of pFepAE280C was grown in LB medium and subcultured into T medium plus appropriate nutritional supplements at 1%. After 16 hours, bacteria were harvested and suspended in labeling buffer [50 mM Mops and 60 mM NaCl (PH7.5)]. Spin labels were added (to a final concentration of 20 μM MTSL or 10 μM MAL6) and incubated 2 hours at room temperature with shaking, and the cells were washed twice with reaction buffer containing 0.05% Tween-20 and once with reaction buffer alone. […] For ESR analysis, 10^10 cells were suspended in 100 μl of 0.01 M NaHPO4 (pH 6.9) containing 0.4% glucose. X-band spectra of MTSL-labeled KDF541/pFepAE280C (top), KDF541/pITS449 (fepA^+; center), or KDF541 (fepA; bottom) were recorded on a Bruker EMX spectrometer, operating at 9.8 GHz with a total scan range of 150 G and 100-kHz modulation frequency, at 4° C. in a quartz flat cell. Peaks a and b show the position of strongly and weakly immobilized spin labels, respectively. Indicated at (B) are [^125I]-labeled protein A Western blots with anti-MAL6 sera. MAL6 was coupled to bovine serum albumin (BSA) and ovalbumin (OVA). New Zealand White rabbits were immunized with BSA-MAL6 conjugates [100 μg/week for 1 month (29)], and polyclonal serum was collected in week 5 and assayed for antigen specificity by enzyme-linked immunosorbent assay (30) and Western blots against BSA, BSA-MAL6, OVA, and OVA-MAL6 (lanes 1 through 4, respectively). Lysates (5×10^7 cells) of KDF541, KDF541/pITS449, and KDF541/pFepAE280C, previously labeled with MAL6, as described above, were reacted with the anti-MAL6 polyclonal serum (lanes 5 through 7, respectively). Arrows indicate the positions of (top to bottom) FepAE280C-MAL6, BSA-MAL6, BSA, and OVA-MAL6.
KDF541/pFepAE280C was grown, spin-labeled, and prepared as described in FIG. 1. Signal-averaged X-band spectra (six field sweeps collected over an 8-minute period) of spin-labeled bacteria were recorded at 4° C. as indicated at (A) and again after warming the flat cell to 37° C. [indicated at (B) (31)]. A fresh aliquot of cells from the same labeling reaction was suspended in saturating ferric enterobactin (300 μM) at 4° C. as indicated at (C), the sample was warned to 37° C., and spectra were recorded after 5 minutes, as indicated at (D), and 15 minutes, as indicated at (E) (midpoints of the signal-average measurements). The bacteria were then cooled again to 4° C. for 30 minutes, and spectra were recorded, as indicated at (F). Each of the spectra was double-integrated, as indicated at (G), from 3405 to 3555 G to determine the total number of MTSL spins (O) and from 3443 to 3477 G to determine the spins derived from the strongly immobilized (a) and weakly immobilized (b) peaks (●).
KDF541/pFepAE280C was grown, spin-labeled, and prepared as described in FIG. 1. Singla-averaged X-band spectra (six field sweeps collected over an 8-minute period) of spin-labeled bacteria were recorded in the presence of saturating levels of colicin B (10 μM) at 4° C., as indicated at (A). The sample was warmed to 37° C. and analyzed after 5 minutes, as indicated at (B), 15 minutes, as indicated at (C), and 75 minutes, as indicated at (D) (midpoints of signal average measurement before recooling to 4° C., as indicated at (E). The same strain was grown in minimal media and starved for glucose for 2 hours to deplete its energy stores, spin-labeled, and exposed to colicin B (10 μM) at 37° C. for 30 minutes, as indicated at (F). The spectra were double-integrated, as indicated at (G), as described in FIG. 2.
KDF541/pFepAE280C was grown, spin-labeled, and prepared as described in FIG. 1.

[1] = ferric enterobactin in excess, 37° C.

T1 sequence (P05825 23-746 E302C): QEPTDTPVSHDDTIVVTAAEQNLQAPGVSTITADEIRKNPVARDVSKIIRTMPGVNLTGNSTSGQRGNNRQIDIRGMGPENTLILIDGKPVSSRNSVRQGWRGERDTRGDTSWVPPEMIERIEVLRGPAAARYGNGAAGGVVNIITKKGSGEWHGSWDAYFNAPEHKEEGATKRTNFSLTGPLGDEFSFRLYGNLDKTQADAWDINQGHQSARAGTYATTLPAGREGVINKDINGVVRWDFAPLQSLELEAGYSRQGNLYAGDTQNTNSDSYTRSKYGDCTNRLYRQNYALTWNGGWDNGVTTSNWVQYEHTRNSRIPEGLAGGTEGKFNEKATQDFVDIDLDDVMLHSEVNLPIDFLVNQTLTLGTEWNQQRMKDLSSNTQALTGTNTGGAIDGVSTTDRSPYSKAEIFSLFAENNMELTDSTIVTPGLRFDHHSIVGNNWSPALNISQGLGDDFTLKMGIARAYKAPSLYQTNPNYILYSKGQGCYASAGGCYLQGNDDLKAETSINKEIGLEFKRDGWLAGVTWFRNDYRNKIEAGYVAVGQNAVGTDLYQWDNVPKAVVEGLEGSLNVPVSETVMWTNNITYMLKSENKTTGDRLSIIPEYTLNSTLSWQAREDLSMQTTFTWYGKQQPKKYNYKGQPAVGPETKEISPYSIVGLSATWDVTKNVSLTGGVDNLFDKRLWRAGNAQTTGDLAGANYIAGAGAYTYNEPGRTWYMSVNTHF

| Molecule | period over which the burst of spin-label motion peaked and receded (ferric enterobactin 300 μM, 37° C., continuous monitoring at 3472 G) [min] | effect on MTSL mobility (weakly immobilized peak at 3472 G) monitored over time (ferric enterobactin 300 μM, KDF541/pFepAE280C, glucose present, warmed from 4° C. to 37° C.) | time for first surge in motion to decay [1] [s] | time for first surge in motion to peak [1] [s] | time over which immobilization of MTSL at residue 280 became more severe (cells with bound colicin warmed to 37° C.) [min] | effect on MTSL mobility during continual incubation at 4° C. (colicin bound, 4° C., over the course of 1 hour) | effect on MTSL mobility in signal-averaged X-band spectra (saturating colicin B (10 μM), 37° C.) |
| --- | --- | --- | --- | --- | --- | --- | --- |
| O=C(N[C@H]1COC(=O)[C@@H](NC(=O)c2cccc([O-])c2[O-])COC(=O)[C@@H](NC(=O)c2cccc([O-])c2[O-])COC1=O)c1cccc([O-])c1[O-].[Fe+3] [ferric enterobactin] | 5 | stimulated a burst of motion | 140 | 140 | – | – | – |
| colicin B | – | – | – | – | 30 | did not take place | progressively eliminated weakly immobilized spins |

From patent US20050287070A1, “Ligand-specific opening of a gated-porin channel in the outer membrane of living bacteria” (priority 1997, published 2005)
